Reference: the supplement of paper PMC10307832

Key:
Assay in all cases: relative viability (nuclei count vs DMSO), 5 days (fraction); higher = more cells survive
[1] = compound: NS(=O)(=O)OC[C@@H]1C[C@@H](n2ccc3c(N[C@H]4CCc5ccccc54)ncnc32)C[C@@H]1O [MLN4924] + C[C@]1(O)C[C@@H](c2nc(-c3ccc4ccc(-c5ccccc5)nc4c3)c3c(N)nccn32)C1 [Linsitinib] (partner 1 µM)
How it was run: (§1)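 Dosing by pin tool came one day after lung cancer cell lines were seeded in 1536-well plates, using either one drug or a fixed anchor-drug dose plus five library-drug doses (not always all listed) in √10 steps. After 5 days, nuclei were counted on 4× images. Relative viability is treated-well nuclei count divided by vehicle-well nuclei count, and values are medians of duplicate plates.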

[2] = compound: NS(=O)(=O)OC[C@@H]1C[C@@H](n2ccc3c(N[C@H]4CCc5ccccc54)ncnc32)C[C@@H]1O [MLN4924] + Nc1ncn([C@H]2C[C@H](O)[C@@H](CO)O2)c(=O)n1 [Decitabine] (partner 2 µM)
How it was run: as §1

[3] = compound: CC[C@H](C)N1C=C(C2=C(C=C(C=C21)C3=CN=C(C=C3)N4CCNCC4)C(=O)NCC5=C(C=C(NC5=O)C)C)C [GSK126] + COc1cccc2cc(-c3nc([C@H]4CC[C@H](C(=O)O)CC4)n4ncnc(N)c34)[nH]c12 [OSI-027] (partner 0.5 µM)
How it was run: as §1

[4] = compound: C1CC(C1)(C(=O)O)C(=O)O.[NH2-].[NH2-].[Pt+2] [Carboplatin] + Cc1cc(Nc2cc(N3CCN(C)CC3)nc(Sc3ccc(NC(=O)C4CC4)cc3)n2)n[nH]1 [Tozasertib] (partner 0.1 µM)
How it was run: as §1

Row | Cell Line | relative viability ([1]; first compound 0.04 µM) | relative viability ([1]; first compound 0.1265 µM) | relative viability ([1]; first compound 0.4 µM) | relative viability ([1]; first compound 1.265 µM) | relative viability ([1]; first compound 4 µM) | relative viability ([2]; first compound 0.04 µM) | relative viability ([2]; first compound 0.1265 µM) | relative viability ([2]; first compound 0.4 µM) | relative viability ([2]; first compound 1.265 µM) | relative viability ([2]; first compound 4 µM) | relative viability ([3]; first compound 0.08 µM) | relative viability ([3]; first compound 0.253 µM) | relative viability ([3]; first compound 0.8 µM) | relative viability ([3]; first compound 2.53 µM) | relative viability ([3]; first compound 8 µM) | relative viability ([4]; first compound 0.08 µM) | relative viability ([4]; first compound 0.253 µM) | relative viability ([4]; first compound 0.8 µM) | relative viability ([4]; first compound 2.53 µM) | relative viability ([4]; first compound 8 µM)
1 | SK-MES-1 | 0.976 | 0.825 | 0.35 | 0.215 | 0.207 | 0.405 | 0.339 | 0.233 | 0.16 | 0.205 | 0.626 | 0.649 | 0.637 | 0.654 | 0.712 | 0.812 | 0.938 | 0.925 | 0.922 | 0.843
2 | NCI-H1648 |  |  |  |  |  | 0.572 | 0.507 | 0.398 | 0.305 | 0.336 | 0.248 |  | 0.265 | 0.242 | 0.252 | 0.708 | 0.421 | 0.319 |  | 0.456
3 | PC-14 | 0.975 | 0.79 | 0.366 | 0.143 | 0.144 | 0.275 | 0.177 | 0.105 | 0.0656 | 0.104 | 1.06 | 0.854 | 0.757 | 0.939 | 0.83 | 0.553 | 0.582 | 0.443 | 0.314 | 0.202
4 | NCI-H1651 | 1.13 | 0.973 | 0.431 | 0.334 | 0.135 | 0.578 | 0.586 | 0.46 | 0.216 | 0.146 | 0.718 | 0.755 | 0.699 | 0.789 | 0.697 | 0.89 | 0.668 | 0.593 | 0.508 | 0.305
5 | HOP-62 | 0.433 | 0.272 | 0.151 | 0.0627 | 0.0635 | 0.195 | 0.201 | 0.0844 | 0.0618 | 0.0785 | 0.888 | 0.845 | 0.869 | 0.867 | 0.798 | 0.377 | 0.387 | 0.378 | 0.378 | 0.368
6 | HCC-44 | 0.561 | 0.219 | 0.199 | 0.156 | 0.129 | 0.874 | 0.85 | 0.582 | 0.421 | 0.399 | 0.623 | 0.624 | 0.595 | 0.562 | 0.706 | 1.14 | 0.949 | 0.803 | 0.603 | 0.517
7 | HCC-15 | 0.558 | 0.249 | 0.16 | 0.0968 | 0.104 | 0.322 | 0.217 | 0.17 | 0.0917 | 0.111 | 0.752 | 0.687 | 0.696 | 0.713 | 0.695 | 0.48 | 0.553 | 0.34 | 0.342 | 0.303
8 | NCI-H460 | 0.838 | 0.733 | 0.113 | 0.0176 | 0.0132 | 0.524 | 0.462 | 0.325 | 0.0402 | 0.0249 | 0.843 | 0.615 | 0.622 | 0.718 | 0.656 | 0.54 | 0.462 | 0.387 | 0.237 | 0.168
9 | NCI-H1299 | 0.903 | 0.768 | 0.441 | 0.189 | 0.186 |  |  |  |  |  |  |  |  |  |  |  |  |  |  | 
10 | SK-LU-1 | 0.747 | 0.443 | 0.19 | 0.181 | 0.216 | 0.645 | 0.661 | 0.309 | 0.29 | 0.24 | 0.435 | 0.37 | 0.401 | 0.416 | 0.387 | 0.366 | 0.293 | 0.341 | 0.346 | 0.275
11 | COR-L 105 | 0.8 | 0.615 | 0.424 | 0.283 | 0.231 | 0.658 | 0.523 | 0.397 | 0.263 | 0.328 | 0.694 | 0.666 | 0.616 | 0.72 | 0.771 | 0.37 | 0.337 | 0.348 | 0.359 | 0.345
12 | COR-L23 | 0.788 | 0.801 | 0.619 | 0.149 | 0.11 | 0.465 | 0.431 | 0.321 | 0.156 | 0.138 | 1 | 0.725 | 0.645 | 0.824 | 0.694 | 0.237 | 0.217 | 0.186 | 0.144 | 0.148
13 | NCI-H3122 | 0.958 | 0.429 | 0.291 | 0.172 | 0.115 | 0.423 | 0.264 | 0.2 | 0.14 | 0.125 | 1.23 | 0.953 | 0.963 | 1.01 | 0.896 | 0.371 | 0.336 | 0.381 | 0.329 | 0.411
14 | NCI-H23 | 0.632 | 0.405 | 0.203 | 0.135 | 0.149 | 0.344 | 0.329 | 0.276 | 0.249 | 0.21 | 0.697 | 0.6 | 0.668 | 0.682 | 0.559 | 0.4 | 0.315 | 0.385 | 0.356 | 0.317
15 | PC-3 [JPC-3] | 0.975 | 0.923 | 0.679 | 0.383 | 0.386 | 0.808 | 0.83 | 0.408 | 0.46 | 0.451 | 0.839 | 0.847 | 0.76 | 0.822 | 0.855 | 0.863 | 0.877 | 0.863 | 0.853 | 0.765
16 | NCI-H2228 |  | 0.419 | 0.355 | 0.163 | 0.18 |  |  |  |  |  | 0.635 | 0.729 | 0.579 | 0.613 | 0.634 | 0.276 | 0.252 | 0.246 | 0.225 | 0.209
17 | A549 | 0.635 | 0.626 | 0.496 | 0.0571 | 0.047 | 0.213 | 0.189 | 0.112 | 0.0579 | 0.0418 |  |  |  |  |  |  |  |  |  | 
